# Assay results: patent publication US10610520B2, “Heterocyclic compound” (Takeda Pharmaceutical Company Limited, priority 2016, dated 2020)
# Target: T1, His-hMAGL (recombinant polyhistidine tagged human MAGL protein) (Homo sapiens, UniProt Q99685)
# T1 construct: made in house; host or cells: E. coli BL21(DE3)
# T1 sequence (Q99685 1-303): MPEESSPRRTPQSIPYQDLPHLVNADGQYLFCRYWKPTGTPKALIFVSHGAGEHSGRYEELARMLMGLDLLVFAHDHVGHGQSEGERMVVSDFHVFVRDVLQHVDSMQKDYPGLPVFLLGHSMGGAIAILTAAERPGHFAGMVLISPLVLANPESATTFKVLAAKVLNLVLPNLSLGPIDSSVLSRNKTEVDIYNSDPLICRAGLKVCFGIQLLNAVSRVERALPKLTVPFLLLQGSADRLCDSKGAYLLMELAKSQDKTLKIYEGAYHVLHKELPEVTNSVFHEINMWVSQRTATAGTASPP
# Assay: Measurement of MAGL inhibitory activity (arachidonic acid production from 2-arachidonylglycerol, RapidFire-mass spectrometry)
# Type: biochemical
# Settings: MAGL inhibitory rate, test compound 10 μM, 60 min preincubation, 2-arachidonylglycerol substrate
# Summary of the method: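 Arachidonic acid formed was quantified by online solid-phase extraction and triple-quadrupole MS in negative SRM mode against a d8 internal standard. Reaction: recombinant His-hMAGL (7.5 ng/mL, pH 7.5 Tris buffer with Triton X-100 and BSA) plus 2-AG (5 μL of 150 μM stock) for 10 min at room temperature, quenched with 2% formic acid. Percent inhibition corrected for enzyme-free background.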
row,inhibition at 10 µM [%],Structure (SMILES)
1,100,"Cc1ccsc1-c1ccc2c(Cl)c(C(=O)N3CC4(CCC(=O)N4)C3)sc2c1 [Example 235, 2-((3-chloro-6-(3-methyl-2-thienyl)-1-benozthiophen-2-yl)carbonyl)-2,5-diazaspiro[3.4]octan-6-one]"
2,101,"O=C1NC2(CO1)CN(C(=O)c1sc3cc(OC(F)(F)F)c(F)cc3c1Cl)C2 [Example 280, 2-((3-chloro-5-fluoro-6-(trifluoromethoxy)-1-benzothiophen-2-yl)carbonyl)-7-oxa-2,5-diazaspiro[3.4]octan-6-one]"
3,100,"O=C1NC2(CO1)CN(C(=O)c1sc3c(C(F)(F)F)cccc3c1OC(F)F)C2 [Example 272, 2-((3-(difluoromethoxy)-7-(trifluoromethyl)-1-benzothiophen-2-yl)carbonyl)-7-oxa-2,5-diazaspiro[3.4]octan-6-one]"
4,100,"O=C1NC2(CO1)CN(C(=O)c1sc3ccccc3c1Cl)C2 [Example 288, 2-((3-chloro-1-benzothiophen-2-yl)carbonyl)-7-oxa-2,5-diazaspiro[3.4]octan-6-one]"
5,102,"O=C1NC2(CO1)CN(C(=O)c1sc3cccc(C(F)(F)F)c3c1Cl)C2 [Example 268, 2-((3-chloro-4-(trifluoromethyl)-1-benzothiophen-2-yl)carbonyl)-7-oxa-2,5-diazaspiro[3.4]octan-6-one]"
6,98,"O=C1CCC2(CN(C(=O)N3CC(OCc4ccc(C(F)(F)F)cc4F)C3)C2)N1 [Example 9, 2-((3-((2-fluoro-4-(trifluoromethyl)benzyl)oxy)azetidin-1-yl)carbonyl)-2,5-diazaspiro[3.4]octan-6-one]"
7,100,"Cc1ncccc1-c1ccc2c(Cl)c(C(=O)N3CC4(CCC(=O)N4)C3)sc2c1 [Example 229, 2-((3-chloro-6-(2-methylpyridin-3-yl)-1-benzothiophen-2-yl)carbonyl)-2,5-diazaspiro[3.4]octan-6-one]"
8,100,"O=C1NC2(CCN(C(=O)c3sc4cc(C(F)(F)F)cc(F)c4c3Cl)C2)CO1 (stereo not shown) [Example 334, 7-((3-chloro-4-fluoro-6-(trifluoromethyl)-1-benzothiophen-2-yl)carbonyl)-3-oxa-1,7-diazaspiro[4.4]nonan-2-one]"
9,101,"COc1cc(F)c2c(Cl)c(C(=O)N3CC4(COC(=O)N4)C3)sc2c1 [Example 284, 2-((3-chloro-4-fluoro-6-methoxy-1-benzothiophen-2-yl)carbonyl)-7-oxa-2,5-diazaspiro[3.4]octan-6-one]"
10,100,"O=C1NC2(CCN(C(=O)c3sc4cc(OC(F)(F)F)c(F)cc4c3Cl)C2)CO1 (stereo not shown) [Example 339, 7-((3-chloro-5-fluoro-6-(trifluoromethoxy)-1-benzothiophen-2-yl)carbonyl)-3-oxa-1,7-diazaspiro[4.4]nonan-2-one]"
11,100,"COc1cccc(-c2ccc3c(Cl)c(C(=O)N4CC5(CCC(=O)N5)C4)sc3c2)c1 [Example 194, 2-((3-chloro-6-(3-methoxyphenyl)-1-benzothiophen-2-yl)carbonyl)-2,5-diazaspiro[3.4]octan-6-one]"
12,99,"O=C1CCC2(CN(C(=O)c3sc4cc(-c5ccc(Cl)cc5F)ccc4c3Cl)C2)N1 [Example 225, 2-((3-chloro-6-(4-chloro-2-fluorophenyl)-1-benzothiophen-2-yl)carbonyl)-2,5-diazaspiro[3.4]octan-6-one]"
13,99,"Cc1ccc(-c2ccc3c(Cl)c(C(=O)N4CC5(CCC(=O)N5)C4)sc3c2)s1 [Example 232, 2-((3-chloro-6-(5-methyl-2-thienyl)-1-benzothiophen-2-yl)carbonyl)-2,5-diazaspiro[3.4]octan-6-one]"
14,99,"O=C1CCC2(CN(C(=O)c3sc4cc(OC(F)(F)F)cc(F)c4c3Cl)C2)N1 [Example 251, 2-((3-chloro-4-fluoro-6-(trifluoromethoxy)-1-benzothiophen-2-yl)carbonyl)-2,5-diazaspiro[3.4]octan-6-one]"
15,100,"O=C1NC2(CO1)CN(C(=O)c1sc3c(F)ccc(OC(F)(F)F)c3c1Cl)C2 [Example 301, 2-((3-chloro-7-fluoro-4-(trifluoromethoxy)-1-benzothiophen-2-yl)carbonyl)-7-oxa-2,5-diazaspiro[3.4]octan-6-one]"
16,100,"O=C1CCC2(CN(C(=O)c3sc4cc(-c5ccccc5Cl)ccc4c3Cl)C2)N1 [Example 192, 2-((3-chloro-6-(2-chlorophenyl)-1-benzothiophen-2-yl)carbonyl)-2,5-diazaspiro[3.4]octan-6-one]"
17,101,"O=C1NC2(CO1)CN(C(=O)c1sc3cc(F)cc(OC(F)(F)F)c3c1Cl)C2 [Example 314, 2-((3-chloro-6-fluoro-4-(trifluoromethoxy)-1-benzothiophen-2-yl)caarbonyl)-7-oxa-2,5-diazaspiro[3.4]octan-6-one]"
18,101,"O=C1NC2(CO1)CN(C(=O)c1sc3ccc(OC(F)(F)F)cc3c1Cl)C2 [Example 262, 2-((3-chloro-5-(trifluoromethoxy)-1-benzothiophen-2-yl)carbonyl)-7-oxa-2,5-diazaspiro[3.4]octan-6-one]"

# The next lines start with the compound.
row,Structure (SMILES),inhibition at 10 µM [%]
1,"O=C1CCC2(CN(C(=O)c3cc4cc(Br)ccc4s3)C2)N1 [Example 250, 2-((5-bromo-1-benzothiophen-2-yl)carbonyl)-2,5-diazaspiro[3.4]octan-6-one]",86
2,"COc1ccc(F)c(-c2ccc(C(=O)N3CC4(CCC(=O)N4)C3)cc2)c1F [Example 78, 2-((2′,6′-difluoro-3′-methoxybiphenyl-4-yl)carbonyl)-2,5-diazaspiro[3.4]octan-6-one]",85
3,"O=C1CCC2(CN(C(=O)c3sc(-c4cccc(OCC5CC5)c4)cc3Cl)C2)N1 [Example 182, 2-((3-chloro-5-(3-(cyclopropylmethoxy)phenyl)-2-thienyl)carbonyl)-2,5-diazaspiro[3.4]octan-6-one]",98
4,"O=C1CCC2(CN(C(=O)N3CCC(C(F)(c4ccccc4)c4ccccc4)CC3)C2)N1 [Example 237, 2-((4-(fluoro(diphenyl)methyl)piperidin-1-yl)carbonyl)-2,5-diazaspiro[3.4]octan-6-one]",101
5,"Cc1ccc(OCC2CN(C(=O)N3CC4(CCC(=O)N4)C3)C2)c(Cl)c1 [Example 21, 2-((3-((2-chloro-4-methylphenoxy)methyl)azetidin-1-yl)carbonyl)-2,5-diazaspiro[3.4]octan-6-one]",102
6,"O=C1CCC2(CN(C(=O)c3ccc(-c4cccc(C5(C(F)(F)F)CC5)c4)cc3)C2)N1 [Example 64, 2-((3′-(1-(trifluoromethyl)cyclopropyl)biphenyl-4-yl)carbonyl)-2,5-diazaspiro[3.4]octan-6-one]",99
7,"O=C1CCC2(CN(C(=O)N3CC(COc4ccc(F)cc4Cl)C3)C2)N1 [Example 34, 2-((3-((2-chloro-4-fluorophenoxy)methyl)azetidin-1-yl)carbonyl)-2,5-diazaspiro[3.4]octan-6-one]",99
8,"O=C1NC2(CO1)CN(C(=O)[C@H]1C[C@@H](OCc3ccc(Cl)c(Cl)c3)C1)C2 [Example 353, 2-((cis-3-((3,4-dichlorobenzyl)oxy)cyclobutyl)carbonyl)-7-oxa-2,5-diazaspiro[3.4]octan-6-one]",100
9,"O=C1CCC2(CN(C(=O)c3ccc(-c4cccc(C(F)(F)F)c4)c(C(F)(F)F)c3)C2)N1 [Example 131, 2-((2,3′-bis(trifluoromethyl)biphenyl-4-yl)carbonyl)-2,5-diazaspiro[3.4]octan-6-one]",99
10,"Cc1ccc(-c2ccc3c(Cl)c(C(=O)N4CC5(CCC(=O)N5)C4)sc3c2)cc1 [Example 184, 2-((3-chloro-6-(4-methylphenyl)-1-benzothiophen-2-yl)carbonyl)-2,5-diazaspiro[3.4]octan-6-one]",99
11,"O=C1CCC2(CN(C(=O)c3sc4cc(Br)ccc4c3C3CC3)C2)N1 [Example 245, 2-((6-bromo-3-cyclopropyl-1-benzothiophen-2-yl)carbonyl)-2,5-diazaspiro[3.4]octan-6-one]",98
12,"O=C1CCC2(CN(C(=O)c3ccc(-c4ccc(Cl)cc4Cl)cc3)C2)N1 [Example 84, 2-((2′,4′-dichlorobiphenyl-4-yl)carbonyl)-2,5-diazaspiro[3.4]octan-6-one]",101
13,"O=C1CCC2(CN(C(=O)c3ccc(-c4cc(Cl)ccc4Cl)cc3)C2)N1 [Example 80, 2-((2′,5′-dichlorobiphenyl-4-yl)carbonyl)-2,5-diazaspiro[3.4]octan-6-one]",98
14,"O=C1CCC2(CN(C(=O)N3CCC(C(F)(F)c4ccc(F)cc4)CC3)C2)N1 [Example 29, 2-((4-(difluoro(4-fluorophenyl)methyl)piperidin-1-yl)carbonyl)-2,5-diazaspiro[3.4]octan-6-one]",98
15,"Cc1cc(Cl)ccc1CC1CCN(C(=O)N2CC3(CCC(=O)N3)C2)CC1 [Example 104, 2-((4-(4-chloro-2-methylbenzyl)piperidin-1-yl)carbonyl)-2,5-diazaspiro[3.4]octan-6-one]",98
16,"COc1ccccc1-c1ccc2c(Cl)c(C(=O)N3CC4(CCC(=O)N4)C3)sc2c1 [Example 195, 2-((3-chloro-6-(2-methoxyphenyl)-1-benzothiophen-2-yl)carbonyl)-2,5-diazaspiro[3.4]octan-6-one]",100
